ChEMBL document CHEMBL1201862, “PubChem BioAssay data set” (2004)
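A five-concentration, 48-hour dose response in 96-well plates underlies each endpoint, interpolated linearly between surrounding concentrations. GI50 = concentration required for 50% inhibition of growth.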 Active and inactive are the calls of the source. Rule as the data show it: active = GI50 up to about 1.1 µM and inactive = higher.

Legend:
Test in all cases: NCI-60 cell line screen, 48 h
786-0 = tested on: 786-0
ACHN = tested on: ACHN
CAKI-1 = tested on: CAKI-1
COLO 205 = tested on: COLO 205
HCC 2998 = tested on: HCC 2998
HL-60 = tested on: HL-60
Hs-578T = tested on: Hs-578T
MDA-N = tested on: MDA-N
MOLT-4 = tested on: MOLT-4
NCI-H226 = tested on: NCI-H226
NCI-H23 = tested on: NCI-H23
NCI-H460 = tested on: NCI-H460
NCI-H522 = tested on: NCI-H522
OVCAR-5 = tested on: OVCAR-5
SF-539 = tested on: SF-539
SK-OV-3 = tested on: SK-OV-3
SN12C = tested on: SN12C
TK-10 = tested on: TK-10
UACC-257 = tested on: UACC-257

SMILES	GI50 (786-0)	GI50 (ACHN)	GI50 (CAKI-1)	GI50 (COLO 205)	GI50 (HCC 2998)	GI50 (HL-60)	GI50 (Hs-578T)	GI50 (MDA-N)	GI50 (MOLT-4)	GI50 (NCI-H226)	GI50 (NCI-H23)	GI50 (NCI-H460)	GI50 (NCI-H522)	GI50 (OVCAR-5)	GI50 (SF-539)	GI50 (SK-OV-3)	GI50 (SN12C)	GI50 (TK-10)	GI50 (UACC-257)
O=S(=O)(N=[Se](=O)(c1ccccc1)c1ccccc1)c1ccccc1	> 100 µM (inactive)	> 100 µM (inactive)	> 100 µM (inactive)	> 100 µM (inactive)	> 100 µM (inactive)	25.1 µM (inactive)	> 100 µM (inactive)	> 100 µM (inactive)	> 100 µM (inactive)	> 100 µM (inactive)	> 100 µM (inactive)	> 100 µM (inactive)	> 100 µM (inactive)	> 100 µM (inactive)	> 100 µM (inactive)	> 100 µM (inactive)	> 100 µM (inactive)	> 100 µM (inactive)	–
O=C(CC1OC(O)C(Cl)=C1Cl)c1cccnc1 (centres undefined)	> 41.5 µM (inactive)	> 31.6 µM (inactive)	> 100 µM (inactive)	> 100 µM (inactive)	> 71.8 µM (inactive)	> 100 µM (inactive)	–	–	> 100 µM (inactive)	> 100 µM (inactive)	> 100 µM (inactive)	> 73.5 µM (inactive)	> 100 µM (inactive)	> 100 µM (inactive)	0.359 µM (active)	> 100 µM (inactive)	> 100 µM (inactive)	> 100 µM (inactive)	> 100 µM (inactive)
[N-]=[N+]=NI1OC(=O)c2ccccc21	> 100 µM (inactive)	65.9 µM (inactive)	23.8 µM (inactive)	48.5 µM (inactive)	> 100 µM (inactive)	40.5 µM (inactive)	> 100 µM (inactive)	–	66.8 µM (inactive)	> 100 µM (inactive)	> 100 µM (inactive)	–	17.3 µM (inactive)	66.5 µM (inactive)	> 100 µM (inactive)	> 100 µM (inactive)	> 100 µM (inactive)	> 100 µM (inactive)	> 100 µM (inactive)
CC1(c2cccc(C3CCC4(C=CC3=O)OCCO4)c2)OCCO1 (centres undefined)	4.62 µM (inactive)	4.91 µM (inactive)	8.61 µM (inactive)	6.14 µM (inactive)	18.6 µM (inactive)	1.62 µM (inactive)	15.3 µM (inactive)	10.3 µM (inactive)	2.84 µM (inactive)	25.9 µM (inactive)	11.5 µM (inactive)	16.4 µM (inactive)	1.43 µM (inactive)	18.2 µM (inactive)	14.8 µM (inactive)	30.8 µM (inactive)	14.5 µM (inactive)	8.2 µM (inactive)	9.48 µM (inactive)
CCCCCCCCC#CCCCCCCC(F)C(=O)O (centres undefined)	> 100 µM (inactive)	> 100 µM (inactive)	–	> 100 µM (inactive)	> 100 µM (inactive)	25 µM (inactive)	> 100 µM (inactive)	–	> 100 µM (inactive)	> 100 µM (inactive)	> 100 µM (inactive)	> 100 µM (inactive)	> 100 µM (inactive)	> 100 µM (inactive)	> 100 µM (inactive)	> 100 µM (inactive)	–	> 100 µM (inactive)	> 100 µM (inactive)
CC1=C(/C=C/C(C)=C/C=C/C(C)=C/CO)C(C)(C)CCC1 [RETINOL]	17.2 µM (inactive)	29.4 µM (inactive)	42 µM (inactive)	19.1 µM (inactive)	17.3 µM (inactive)	23.4 µM (inactive)	–	36.5 µM (inactive)	18 µM (inactive)	20.7 µM (inactive)	21.8 µM (inactive)	30.5 µM (inactive)	25.5 µM (inactive)	24.9 µM (inactive)	14.1 µM (inactive)	35.2 µM (inactive)	21.7 µM (inactive)	–	27.6 µM (inactive)
